Test results as given in PMC8778187, “A New Oxygen Containing Pyclen-Type Ligand as a Manganese(II) Binder for MRI and ^52Mn PET Applications: Equilibrium, Kinetic, Relaxometric, Structural and Radiochemical Studies” (Molecules, 2022).

Assay: Stability and protonation constants and pMn of Mn(II) complexes by pH-potentiometry
Format: physicochemical
Method: The stability and protonation constants of the metal complexes formed with H2OPC2A were determined by pH-potentiometric titrations, but, for the Cu(II) complex, UV-Vis spectrophotometric measurements were also carried out to supplement the pH-potentiometric titration data (Figures S21 and S22, Supporting Information).
The validity of the equilibrium model used for the fitting of the pH-potentiometric titration data for the Mn(II) system, was supported by ^1H relaxometric measurements, when 1/T1 and 1/T2 relaxation rates were determined as a function of pH, and their trends were compared to the species distribution curves calculated by using the equilibrium constants determined by pH-potentiometry (Table 3). The equilibrium for all metal ions can be described by considering the formation of only ([M(L)]) and monoprotonated ([M(HL)]) complexes (Table 3). However, for the Mn(II), Cu(II), and Zn(II) ions, the formation of ternary hydroxido species ([M(L)(OH)]) was also considered. A comparison of the pH-relaxation rate profiles normalized to 1 mM with the species distribution curves, confirmed that the equilibrium model applied for the fitting of pH-potentiometric titration data, satisfactorily described the Mn(II) system. […] The formation of the [Mn(3,9-OPC2A)] complex was also confirmed by analytical HPLC at pH 7.0 relying on the different retention times of the ligand and the complex (the difference is more than 2 min (Figures S20 and S23)).
The stability constants of the complexes are summarized and compared to those of the chelates formed with H21,7-DO2A, H21,4-DO2A, H23,6-PC2A, H23,9-PC2A, and H21,7-O2DO2A, in Table 3. H23,9-OPC2A forms considerably weaker complexes with all the metal ions involved in the study, than H23,9-PC2A, H23,6-PC2A, H21,7-DO2A, and H21,4-DO2A chelators. […] A similar trend in the stability constants can be observed, when the stability of the structurally related ligands is compared (H23,9-PC2A vs. H21,7-DO2A and, at a somewhat lesser extent, in the case of H23,6-PC2A vs. H21,4-DO2A ligands). […] Therefore, we have calculated the pMn values (pMn = −log(Mn(II)free) for the Mn complexes, by using the conditions proposed by É. Tóth and coworkers (cMn^2+ = cligand = 1 × 10^−5 M, T = 25 °C, pH = 7.4). As it is seen from the data presented in Table 3, the value characteristic for the [Mn(3,9-OPC2A)] complex is as high (pMn = 8.69) as it is for the [Mn(3,9-PC2A)] chelate (despite its lower stability constant), which is, in fact, the highest known value for a monoaquated macrocyclic Mn(II) complex (pMn = 8.64). This means that more than 99,97% of the total Mn(II) in the system is chelated by the H23,9-OPC2A ligand near pH = 7.4 in equilibrium.
Metal stock solutions were prepared from the highest analytical grade chemicals, and their concentrations were determined by complexometric titration with standardized Na2H2EDTA and eriochrome black T indicator in the presence of ascorbic acid, and potassium hydrogen tartrate for MnCl2, murexide indicator for CaCl2 and CuCl2, eriochrome black T for MgCl2 and xylenol orange in the presence of hexamethylenetetramine for the solution of ZnCl2. The concentration of the ligand stock solution was determined by pH-potentiometric titrations. The protonation constants of the ligand were determined by the pH potentiometric titrations with 0.15 M NaOH, using 0.0025 M ligand solutions. The ionic strength was set to 0.15 M by using NaCl. […]

[1] = Mn^2+ complex, T = 25 °C, I = 0.15 M NaCl

- log KMnHL [1]: 2.40(2)
- log KMnL [1]: 13.03(1)
- log KMnLOH [1]: 11.49(1)
- total Mn(II) chelated by the ligand in equilibrium (near pH = 7.4, pMn conditions): more than 99,97%
- pMn (pMn = −log(Mn(II)free), cMn^2+ = cligand = 1 × 10^−5 M, T = 25 °C, pH = 7.4): 8.69
SMILES: O=C(O)CN1CCOCCN(CC(=O)O)Cc2cccc(n2)C1 [H23,9-OPC2A, 6-Oxa-3,9,15-triazabicyclo(9.3.1)pentadeca-1(15),11,13-triene-3,9-diacetic acid]
